Source: patent US7923204B2, “Forward mutation assay based on 5-fluorouracil resistance” (priority 2003, dated 2011)
Read-outs that look alike come from different tables or passages of the source. Marks after values point to notes of the source that are not given here.

Experiments:
micronucleus = settings: cited from earlier work
Salmonella = settings: cited from earlier work
[1] = system: sister chromatid exchange; settings: cited from earlier work
FU100 [2] = system: FU100
Description: Briefly, in order to practice the disclosed mutation assay one-ml aliquots of exponentially growing bacteria are exposed to the test agent for two hours in the presence and absence of a metabolic activation system, such as a mammalian (i.e., rat, hamster or human) liver homogenate (S9-fraction or liver microsomal enzymes). The aliquots are then diluted, allowed to grow for 3 hours, and assessed for treatment-related toxicity/inhibition by optical density. The cultures are subsequently diluted a second time and grown overnight to permit full recovery from toxicity and to allow expression of the FU^R phenotype. Samples of the cultures are then plated in 384-well microtiter dishes in the presence of 2 μg/ml 5-FU and the pH-sensitive indicator bromcresol purple. Three days later positive wells containing FU^R colonies are detected by their yellow color and enumerated. Treated cultures are then compared to control plates to determine genotoxic activity.
For each mutation experiment, two frozen 1-ml aliquots of FU100 were quickly thawed in a 37° C. water bath, pelleted by centrifugation, washed to remove the DMSO, and suspended in 35 mL of MinE medium. The culture was shaken for approximately 1 hour at 37° C. until the optical density at 600 nm (OD600) reached the target density of 0.3. A 16-ml aliquot of culture was added to each of two 50-ml tubes containing 3.6 ml of a NADPH-generating system (5.6 mM glucose-6-phosphate, 4.5 mM NADP+, 5 mM sucrose, 110 mM Na2HPO4, 37 mM KCl, and 9 mM MgCl2) and either 0.4 ml rat liver S-9 or an equal volume of sodium phosphate buffer. Aliquots of these mixtures were distributed into three 12-well cluster dishes (one for exposure with S-9, one for exposure without S-9, one for controls with and without S-9), and exposed to test compounds as 1-ml aliquots for 2 hour as outlined in FIG. 1.
Following treatment, the 1-ml aliquots were transferred into 9 ml of warm MinE medium in a 50 ml tube and incubated at 37° C. on a rotary wheel for 3 hours. Next, 20 ml of medium was added to each culture tube and 0.25 ml aliquots were transferred to a 96-well plate for OD600 measurements to assess toxicity (OD Day 1). […] Bulk cultures were then incubated overnight in the dark at 30° C. to permit recovery from toxicity and to allow time for the test cells to express the FU^R phenotype.
The next day, OD600 was again assessed to adjust cell number plated on 5-FU plates (OD Day 2; 100 μl of the culture diluted with 150 μl MinE medium for OD600 measurements). For plating, a 35 μl aliquot of each culture was added to 31.4 mL of MinE medium with 2 μg/ml of 5-FU and 10 μg/ml of bromcresol purple. The mixture was then dispersed into a 384-well plate (75 μl/well) and placed at 37° C. for 3 days in a humidified incubator.
The data obtained for both survival (OD day 1), relative number of cells plated (OD day 2), and number of positive wells were imported into an Excel template.
Table 8 summarizes the criteria for positive result in 5-FU assay using the FU100 tester strain described and claimed herein. […] A positive compound was defined when two or more doses met the aforementioned criteria.

chromosome aberrations = settings: cited from earlier work
mouse lymphoma = settings: cited from earlier work
FU100 [3] = system: FU100; remark: listed apart in the source
TA100, TA1535 = system: TA100, TA1535
From the text: As stated above, the Ames Salmonella his+ plate incorporation assay evaluates genotoxic activity (mutagenicity) of chemical compounds on a set of genetically modified bacterial tester strains that are auxotrophic for the amino acid histidine. In practice, the Ames Assay simultaneously evaluates the genotoxic activity of a potential mutagen on several different target genes. The standard Ames Assay utilizes several different tester strains, each with a distinct mutation (e.g., transition, frameshift etc.) in one of the genes comprising the histidine (his) biosynthetic operon. The his operon encodes enzymes required for the biosynthesis of the amino acid histidine. For example, strain TA98 contains the hisD3052 allele which is reverted by a frameshift mutation, while strain TA1535 contains the hisG46 allele which is reverted by transition and transversion mutations. More specifically, the Ames Assay evaluates the ability of a chemical agent to increase the rate of reversion of auxotrophic strains of Salmonella to prototrophy.

wild-type cells = experiment: Growth inhibition by 5-fluoroorotic acid (block of de novo pyrimidine synthesis); type: cell-based, Salmonella; settings: 50 μg/ml; reversed by addition of 20 μg/ml uracil
From the text: It was recognized that reducing the background mutation frequency by eliminating preexisting FU^R mutants could increase the sensitivity of the assay. Since the only mechanism leading to 5-FU resistance in Salmonella involves loss of uracil phosphoribosyltransferase, a uracil salvage enzyme and product of the upp gene, it was theorized that blockage of the de novo pyrimidine synthesis and supplementation with uracil should permit growth of wild-type cells and selection against FU^R upp mutants.
It was also determined that upp mutants cannot grow in the presence of 5-fluorooroticacid and uracil, presumably due to their inability to utilize exogenous uracil. […] Frozen stocks of FU100 were prepared using cultures grown under these conditions (described in Materials and Methods) in order to produce “cleansed” working stocks with reduced background.

[4] = NTP Results Report 12 Aug. 2002
[5] = NTP Results Report 12 Aug. 2002 or cited reference (footnotes f, g, i, j)
[6] = in the presence of S9 activation (+), FU100, 2 h exposure
[7] = in the presence of S9 activation (+), lowest dose tested giving a positive response
[8] = text and figure legend (FIG. 6), with or without S9
[9] = without S9 activation (−), FU100, 2 h exposure
[10] = without S9 activation (−), lowest dose tested giving a positive response
[11] = in the presence of S9 activation (+), approximate, first dose with greater than 50% survival by optical density on Day 1
[12] = without S9 activation (−), approximate, first dose with greater than 50% survival by optical density on Day 1
[13] = TA100 or TA1535, plate incorporation or liquid suspension

Description for TA100 his+: A study was then conducted to determine the optimal concentration of the selective agent 5-FU. The growth rate was determined for cultures in MinE containing up to 8 μg/ml 5-FU.

Compound | NTP Results: MN = micronucleus (micronucleus; [4]) | NTP Results: SA = Salmonella (Salmonella; [5]) | NTP Results: SC = sister chromatid exchange [1, 4] | Results (5-FU assay) (FU100 [2]; [6]) | Lowest Positive Dose (FU100 [2]; [7]) [µg/mL] | response in the 5-FU Assay (in words) (FU100 [2]; [8]) | Results (5-FU assay) (FU100 [2]; [9]) | Lowest Positive Dose (FU100 [2]; [10]) [µg/mL] | NTP Results: CA = chromosome aberrations (chromosome aberrations; [4]) | NTP Results: ML = mouse lymphoma (mouse lymphoma; [4]) | LD50 (FU100 [3]; [11]) [µg/mL] | LD50 (FU100 [3]; [12]) [µg/mL] | response in the standard Ames assay (in words) (TA100, TA1535; [13]) | NTP Results: SA = Salmonella (Salmonella) | Results (5-FU assay) (FU100 [2]) | other results
CCC1CO1 (stereo not drawn) [1,2-Epoxybutane] | − | + | + | Pos | 500 | positive compounds in non-toxic concentrations | Pos | 8.9 | + | + | >5000 | >5000 | weak or equivocal response |  |  | response in the 5-FU Assay (in words) (FU100 [2]; text and figure legend (FIG. 6), with or without S9, listed as 1,2-epoxybutane): easy to detect
O=c1[nH]cc(F)c(=O)[nH]1 [5-FU, 5-fluorouracil] |  |  |  |  |  |  |  |  |  |  |  |  |  |  |  | 5-FU concentration that significantly inhibited culture growth (TA100 his+): greater than or equal to 1 μg/ml; 5-FU concentration at which cultures continued to grow (longer doubling times) (TA100 his+; cultures in MinE, up to 8 μg/ml 5-FU, data not shown): less than or equal to 0.5 μg/ml
O=C(O)c1[nH]c(=O)[nH]c(=O)c1F [5-fluorooroticacid, 5-fluoroorotic acid] |  |  |  |  |  |  |  |  |  |  |  |  |  |  |  | effect on growth of wild-type cells (wild-type cells): inhibited growth
ClCc1ccccc1 [Benzyl Chloride] |  | +^w | + | Pos | 50 | easy to detect | Pos | 28 | + | + | >150 | >1500 | weak or equivocal response |  |  | 
O=P1(N(CCCl)CCCl)NCCCO1 (stereo not drawn) [Cyclophosphamide•H2O] | (SA+, CA+, SC+, MN+) | (SA+, CA+, SC+, MN+) | (SA+, CA+, SC+, MN+) | Pos^w | 1500 | weak positive | Neg |  | (SA+, CA+, SC+, MN+) |  | >300 | >1500 | positive |  |  | 
CCCCC(CC)COC(=O)c1ccccc1C(=O)OCC(CC)CCCC (stereo not drawn) [Di (2-ethylhexyl) phthalate] |  |  |  |  |  |  |  |  |  |  | >5000 | >5000 |  | (SA−, CA−, SC+−?, ML−, MN?) | Neg | NTP Results: MN = micronucleus (micronucleus): (SA−, CA−, SC+−?, ML−, MN?); NTP Results: SC = sister chromatid exchange [1]: (SA−, CA−, SC+−?, ML−, MN?); response in the 5-FU Assay (in words) (FU100 [2]): negative/non-toxic; NTP Results: CA = chromosome aberrations (chromosome aberrations): (SA−, CA−, SC+−?, ML−, MN?); NTP Results: ML = mouse lymphoma (mouse lymphoma): (SA−, CA−, SC+−?, ML−, MN?)
OO [Hydrogen Peroxide] |  |  |  |  |  | easy to detect |  |  |  |  |  |  |  | (SA+^w) | Pos | response in the 5-FU Assay (in words) (FU100 [2]): positive compounds in toxic concentrations; Lowest Positive Dose (FU100 [2]; Salmonella typhimurium): 3 µg/mL; Results (5-FU assay) (FU100 [2]; s9): Neg; response in the standard Ames assay (in words) (TA100, TA1535): weak or equivocal response
CC1CCC(C(C)C)C(O)C1 (stereo not drawn) [Menthol] | (SA−, CA−, SC−, ML−, MN−) | (SA−, CA−, SC−, ML−, MN−) | (SA−, CA−, SC−, ML−, MN−) | Neg |  |  | Neg |  | (SA−, CA−, SC−, ML−, MN−) | (SA−, CA−, SC−, ML−, MN−) | >9 | >16 |  |  |  | 
O=C1CN(/N=C/c2ccc([N+](=O)[O-])o2)C(=O)N1 [Nitrofurantoin] |  |  |  |  |  |  |  |  |  |  |  |  |  | (SA+, CA+, SC+, ML+, MN−) | Pos | NTP Results: MN = micronucleus (micronucleus): (SA+, CA+, SC+, ML+, MN−); NTP Results: SC = sister chromatid exchange [1]: (SA+, CA+, SC+, ML+, MN−); Lowest Positive Dose (FU100 [2]; Salmonella typhimurium): 0.1 µg/mL; NTP Results: CA = chromosome aberrations (chromosome aberrations): (SA+, CA+, SC+, ML+, MN−); NTP Results: ML = mouse lymphoma (mouse lymphoma): (SA+, CA+, SC+, ML+, MN−); LD50 (FU100 [3]; Salmonella typhimurium): >1 µg/mL
[N-]=[N+]=[N-] [Sodium Azide] |  | + | + | Pos^w | 90 |  | Pos^w | 160 | − |  | >30 | >50 | extremely sensitive |  |  | concentration producing a positive response in the 5-FU Assay (FU100 [2]; S9 condition not stated): greater than 90 μg/ml
